Measurements as given in patent US20250090562A1, “METHODS, COMPOSITIONS AND USES RELATED TO THE TREATMENT AND PREVENTION OF LEIGH’S SYNDROME” (Stealth BioTherapeutics Inc., priority 2023, published 2025).

Legend:
[1] = tested on: ROS production generated by reverse electron transfer (RET) from Complex II to Complex I; assay: Reverse electron transfer assay (RET assay) in isolated brain mitochondria; type: biochemical, mouse
Description: For mitochondria isolation, brains were dissected at a local vivarium (Explora, MA, USA) from C57BL/6 mice that were supplied by The Jackson Laboratory (Maine, USA). Brains were collected on ice in cold mitochondria isolation buffer (225 mM mannitol, 75 mM sucrose, 5 mM HEPES, 1 mM EGTA, pH 7.4). In a glass petri dish, brains were mixed with a few drops of buffer and cut into small pieces resembling a mash using scissors. Mitochondrial isolation buffer was added at 1:10-1:20 (w/v) and tissue mash was transferred to a glass Dounce tissue homogenizer and further homogenized with 10-15 strokes. Mash was centrifuged at 1,000×g for 10 min to pellet and remove cellular debris, etc. Supernatant was transferred into 2.0 mL tubes and centrifuged at 10,000×g. […]
All high-resolution respirometry experiments were conducted using the Oroboros O2k-Fluorespirometer (Oroboros, Innsbruck, Austria). […] Prior to each experiment requiring the fluorescence module, the AmpR calibration protocol from DatLab 7.4 was used to calibrate the fluorescence signal. […]
Reverse electron transfer (RET) was measured using HRR with the Oroboros O2k and DatLab 7.4. […]
Statistical analysis was performed using GraphPad Prism 9. […] RET Assay data were analyzed by 2-way ANOVA using a p-value of 0.05. […]

[2] = Pharmacokinetics of Compound 3 and Compound 4, five daily subcutaneous doses, mice (plasma, heart, brain); type: in vivo, C57Bl/6 mice; conditions: mouse; for tolerability: SC once per day for 5 days, up to 60 mg/kg
Description: • Animals: Male/C57Bl/6 mice/-18-25 grams were received from an approved vendor. • Fasting was not required for this study. • Body weights were recorded prior to dose administration. The volume of each dose delivered (mL/kg) was based on each individual animal's body weight. • This was a multiple dose terminal study dosed once per day over 5 days. Mice were taken down following their 5th and final dose. • Doses were administered in accordance with test facility standard operating procedures. […] Any abnormalities were recorded. • Pre-formulated Compound 3 and Compound 4 were provided by Study sponsor ready to be dosed for each day in accordance with the Study Design set forth in Table 1, below.
• Terminal blood samples were collected via cardiac puncture following inhalation of anesthesia in accordance with test facility standard operating procedures. • Blood samples were collected into tubes with appropriate anticoagulant. The tubes were stored on wet ice until processed to plasma by centrifugation (3500 rpm at 5° C. for 10 minutes) within 20 minutes of collection. Sample aliquots of 100 μL were transferred into individual uniquely labeled matrix tubes and stored at nominal −80° C. until transferred to analytical chemistry for analysis by LC/MS/MS. • Immediately following each terminal blood collection for all groups, animals were sacrificed and perfused with cold PBS. The following tissues were collected: heart and brain in accordance with Table 2. • Plasma and tissue samples were processed for analysis by LC/MS/MS to determine the amounts/concentrations reported in the FIGS. 18-21.

[3] = tested on: Leigh fibroblasts (GM03672); assay: Mitochondrial membrane potential (TMRM flow cytometry) in RSL3-treated Leigh fibroblasts; type: cell-based, human; conditions: 1 μM RSL3 with 1 μM compound, 4 h
Description: Leigh fibroblasts (GM03672) were seeded in a 24-well, tissue culture-treated plate in complete MEM (MEM+15% FBS+1% penicillin/streptomycin) at a density of 1×10^5 cells per 500 μL and incubated overnight at 37° C. at 5% CO2. Cells were treated for 4 hours at 37° C. with either 1 μM RSL3, 1 μM RSL3 with 1 μM Compound 3 or media for untreated cells. Following the incubation, supernatant was removed and cells were treated with 0.25% trypsin for 5 min at 37° C. Trypsin was neutralized with an equal part MEM. Cells were dislodged with gentle pipetting and pelleted at 300×g for 5 minutes. Pellets were resuspended in 500 μL Fluobrite DMEM and cells were transferred to a 96-well, v-bottom plate. Cells were stained with 20 nM MitoTracker Green and 100 nM tetramethylrhodamine methyl ester (TMRM) Samples were incubated for 25 minutes at 37° C. Each well was mixed immediately prior to analysis to resuspend settled cells. Fluorescence intensity was measured on the BD Accuri C6 Plus Flow Cytometer. A minimum of 10,000 events per sample was collected. Data analysis was performed using FloJo vs. 10. Gating was performed by establishing an initial forward scatter vs. side scatter gate. MitoTracker Green positive, TMRM positive cells were identified through subsequent gating. Median fluorescence intensity (MFI) of TMRM fluorescence was determined. Using GraphPad Prism 10, statistical significance between groups was determined by One-way ANOVA. A p-value of less than 0.05 was considered significant. Results are presented graphically in FIG. 20.

[4] = SC, up to 2 hours post dose after 5 days

| Structure (SMILES) | H2O2 production ([1]; 2 μM compound prior to succinate (10 mM)) | exposure (Cmax and AUC) heart compared with brain ([2]; SC) | heart exposure based on AUC, comparison between compounds ([2]; SC) | uptake into plasma after subcutaneous injection ([2]; SC) | tolerability [2] | concentration in brain tissue [2, 4] | concentration in heart tissue [2, 4] | mitochondrial membrane potential (TMRM MFI), protection [3] | H2O2 production ([1]; either 1 or 2 μM compound prior to succinate (10 mM)) | Tmax, Compound 4 compared with Compound 3 ([2]; in vivo, sc) | brain exposure based on AUC, comparison between compounds ([2]; in vivo, sc) | exposure (Cmax and AUC) heart compared with brain ([2]; in vivo, sc) | half-life, Compound 4 compared with Compound 3 ([2]; in vivo, sc) | uptake into plasma after subcutaneous injection ([2]; in vivo, sc) |
| --- | --- | --- | --- | --- | --- | --- | --- | --- | --- | --- | --- | --- | --- | --- |
| CC1=C(C)C(=O)C(CC[C@@](C)(O)COCCC[Si](C)(C)C)=C(C)C1=O [Compound 3] | statistically significant reduction | higher in heart than in brain | slightly higher that Compound 4 | migrate into the blood stream | well tolerated | up to microgram quantities of drug per gram of brain tissue | up to microgram quantities of drug per gram of heart tissue | protective of the Leigh fibroblasts from the loss of mitochondrial membrane potential |  |  |  |  |  |  |
| CC1=C(C)C(=O)C(CC[C@](C)(O)CCCCCCCCC(F)(F)F)=C(C)C1=O [Compound 4] |  |  |  |  | well tolerated |  |  | protective of the Leigh fibroblasts from the loss of mitochondrial membrane potential | statistically significant reduction | typically later | somewhat higher than Compound 3 | no difference in the two tissue exposures | tended to be longer | migrate into the blood stream |
